In brackets after ≈: the same amount, converted by molar mass. Several values for one entry are separate records, joined by “and”; a condition that tells them apart may be missing. Equal entries are not always repeated. Where two headings read alike, the source gives them in different places.
Assays:
MRS USA 300 = test: IC50, MIC and MBC against MRS USA 300; assay type: cell-based, Staphylococcus aureus
Experimental: (§1) As used herein, the term “minimum inhibitory concentration (MIC)” refers to the lowest concentration of an antimicrobial agent that will inhibit the visible growth of a microorganism after overnight incubation. MIC values against bacteria may be determined by standard methods. See also P. A. Wayne, Methods for Dilution Antimicrobial Tests for Bacteria that Grow Aerobically; Approved Standard, Ninth Edition, 2012, CLSI Document M07-A9, Vol. 32 No. 2, which is incorporated by reference herein in its entirety.

[1] = system: MRS 1708 (Mupirocin-resistant); test: IC50, MIC and MBC against MRS 1708 (Mupirocin-resistant); assay type: cell-based, Staphylococcus aureus; set-up: AMC: unit not given here
Experimental: as §1

MRS 33591 = test: IC50, MIC and MBC against MRS 33591; assay type: cell-based, Staphylococcus aureus
Experimental: as §1

MRS USA 400 = test: IC50, MIC and MBC against MRS USA 400; assay type: cell-based, Staphylococcus aureus
Experimental: as §1

S. aureus 29213 = test: IC50, MIC and MBC against S. aureus 29213; assay type: cell-based
Experimental: As used herein, the term “minimum inhibitory concentration (MIC)” refers to the lowest concentration of an antimicrobial agent that will inhibit the visible growth of a microorganism after overnight incubation. MIC values against bacteria may be determined by standard methods.

[2] = MRS USA 300, tested Conc. in μg/mL
[3] = MRS 33591, tested Conc. in μg/mL
[4] = MRS USA 400, tested Conc. in μg/mL
[5] = S. aureus 29213, tested Conc. in μg/mL
[6] = Mupirocin-resistant MRS (Table 11)
[7] = Mupirocin-resistant MRS (Table 11), in µg/mL
[8] = S. aureus 29213, tested Conc. in μg/mL, NA given without definition

| SMILES | MIC (MRS USA 300; [2]) | IC50 (MRS USA 300; Staphylococcus aureus, USA300) | MBC (MRS 33591; [3]) | IC50 (MRS 33591; Staphylococcus aureus) | MIC (MRS 33591; Staphylococcus aureus) | MBC (MRS USA 400; [4]) | MIC (MRS USA 400; [4]) | IC50 (S. aureus 29213; Staphylococcus aureus, 29213) [µg/mL] | IC50 (MRS USA 300; [2]) | MBC (MRS USA 300; [2]) | AMC [1, 6] | IC50 [1, 7] | IC50 (MRS 33591; [3]) | MIC (MRS 33591; [3]) | IC50 (MRS USA 400; [4]) | MIC (S. aureus 29213; [5]) | IC50 (S. aureus 29213; [8]) | further results |
| --- | --- | --- | --- | --- | --- | --- | --- | --- | --- | --- | --- | --- | --- | --- | --- | --- | --- | --- |
| C/C(=C\C(=O)OCCCCCCCCC(=O)O)C[C@@H]1OC[C@H](C[C@@H]2O[C@H]2[C@@H](C)[C@H](C)O)[C@@H](O)[C@H]1O [Mupirocin, reference compound] | 0.23 | 80 nM and 0.04 µg/mL | 2.08 | 80 nM and 0.04 µg/mL | 0.44 µM and 0.22 µg/mL | 0.94 ± 0.44 | 0.16 ± 0 | 0.04 (≈ 0.0799 µM) | – | – | – | – | – | – | – | – | – | MBC (MRS USA 300; Staphylococcus aureus, USA300): 3.76 ± 1.76 µM (≈ 1.88 µg/mL); MIC (MRS USA 300; Staphylococcus aureus, USA300): 0.46 ± 0.22 µM (≈ 0.23 µg/mL); IC50 ([1]; Staphylococcus aureus): > 100000 nM; MBC ([1]; Staphylococcus aureus): > 100 µM; MIC ([1]; Staphylococcus aureus): > 100 µM; MBC (MRS 33591; Staphylococcus aureus): 4.15 ± 2.6 µM (≈ 2.08 µg/mL); IC50 (MRS USA 400; Staphylococcus aureus, USA400): 80 nM and 0.04 µg/mL; MBC (MRS USA 400; Staphylococcus aureus, USA400): 1.88 ± 0.88 µM (≈ 0.941 µg/mL); MIC (MRS USA 400; Staphylococcus aureus, USA400): 0.32 µM (≈ 0.16 µg/mL); MBC (S. aureus 29213; [5]): 1.25 ± 0; MIC (S. aureus 29213; Staphylococcus aureus, S. aureus 29213, tested Conc. in μg/mL, read-out: MIC): 0.39 µg/mL (≈ 0.779 µM) |
| C=C(C)[C@@H]1CC[C@](C)(O)[C@H]2Oc3cc(CCCCC)cc(O)c3[C@@H]12 [Cannabielsoin] | 10 ± 0 | – | – | – | – | – | 10 ± 0 | – | 5.49 | 20 ± 0 | 20 ± 0 | 6.03 ± 0.49 | 6.26 | 10 ± 0 | 6.03 | 10 ± 0 | 6.15 | – |
| CCCCCc1cc(O)c2c(c1)OC(C)(C)c1cc(O)c(C)cc1-2 [8-Hydroxycannabinol] | 5 ± 0 | – | – | – | – | – | 5 ± 0 | – | 1.58 | – | – | 2.15 ± 0.22 | 2.33 | 5 ± 0 | 1.82 | 5 ± 0 | 1.2 | – |
| O=C(O)c1cn(C2CC2)c2cc(N3CCNCC3)c(F)cc2c1=O [Ciprofloxacin, reference compound] | 0.5 ± 0 | 0.13 µg/mL | 0.67 | 0.12 µg/mL | 0.67 µg/mL | – | – | 0.12 (≈ 0.362 µM) | – | 0.67 | – | – | – | – | – | – | – | MBC (S. aureus 29213; [5]): 0.67; MIC (S. aureus 29213; Staphylococcus aureus, 29213): 0.5 µg/mL (≈ 1.51 µM) |
| CCCCCc1cc(O)c(CCC(C)CCCC(C)C)c(O)c1 (stereo not drawn) [Tetrahydro CBG, Tetrahydrocannabigerol] | 2.08 | – | 3.75 | – | – | 10 ± 0 | 2.5 ± 0 | – | 0.82 ± 0.1 | – | 3.33 ± 1.44 | 0.83 ± 0.2 | 0.67 ± 0 | 1.25 ± 0 | 1.12 | 1.25 ± 0 | 0.7 | MBC (MRS USA 300; MRS USA 300): >62 µM; MIC (MRS USA 300; MRS USA 300): 6.49 ± 2.25 µM (≈ 2.08 µg/mL); IC50 (MRS USA 300; MRS USA 300, read-out: IC50): 2560 ± 310 nM; MBC ([1]; MRS 1708 (Mupirocin-resistant)): 10.39 ± 4.49 µM (≈ 3.33 µg/mL); MIC ([1]; MRS 1708 (Mupirocin-resistant)): 5.21 ± 2.25 µM (≈ 1.67 µg/mL); IC50 ([1]; MRS 1708 (Mupirocin-resistant), read-out: IC50): 2590 ± 620 nM; MBC (MRS 33591; MRS 33591): 11.7 ± 5.52 µM (≈ 3.75 µg/mL); MIC (MRS 33591; MRS 33591): 3.9 ± 0 µM; IC50 (MRS 33591; MRS 33591, read-out: IC50): 2090 nM; MBC (MRS USA 400; MRS USA 400): 31.2 ± 0 µM (≈ 10 µg/mL); MIC (MRS USA 400; MRS USA 400): 7.8 ± 0 µM (≈ 2.5 µg/mL); IC50 (MRS USA 400; MRS USA 400, read-out: IC50): 3490 ± 500 nM |
| CCCCCc1cc(O)c2c(c1)OC(C)(CCC=C(C)C)C=C2 (stereo not drawn) [Cannabichromene] | – | 6.44 µg/mL | – | 2.58 µg/mL | 5 µg/mL | – | – | 6.96 (≈ 22.1 µM) | – | – | – | – | – | – | – | – | – | IC50 ([1]; Staphylococcus aureus): 5.04 ± 0.55 µg/mL; IC50 (MRS USA 400; Staphylococcus aureus, USA400): 7.28 µg/mL |
| CC(C)=CCCC1(C)C=Cc2c(O)cc(C)cc2O1 (stereo not drawn) [Cannabichromeorcin] | 10 ± 0 | – | 20 ± 0 | – | – | 20 ± 0 | 10 ± 0 | – | 5.41 | 13.33 | 13.33 ± 5.77 | 5.57 ± 0.27 | 5.56 | 10 ± 0 | 5.9 | 10 ± 0 | 6.94 | – |
| CCCCCc1cc(O)c2c(c1)OC(C)(C)[C@@H]1CC=C(C)C[C@@H]21 [Δ8-Tetrahydrocannabinol] | 5 ± 0 | – | 10 ± 0 | – | – | – | 10 ± 0 | – | 1.91 | – | 10 ± 8.66 | 1.82 ± 0.08 | 1.43 | 2.5 ± 0 | 2.55 | 2.5 ± 0 | 1.47 | – |

Source: patent US20210315837A1, “CANNABINOIDS FOR THE TREATMENT OF GRAM-POSITIVE INFECTIONS INCLUDING ANTIBIOTIC-RESISTANT BACTERIAL STRAINS” (priority 2018, published 2021)
